From ChEMBL document CHEMBL3351364 (J Med Chem, 2014)

What was measured:
[1] = Half life in Sprague-Dawley rat at 11.2 mg/kg, po; assay type: ADME, organism-based; set-up: dose 11.2 mg/kg, route oral; settings: in vivo
[2] = Cytotoxicity against West Nile virus NY99 infected african green monkey Vero 76 cells after 3 days; assay type: cell-based; settings: chlorocebus sabaeus, Vero 76 cells infected with West Nile virus NY99
[3] = Solubility of the compound in dimethyl sulfoxide; assay type: physicochemical
Rattus norvegicus [4] = assay: (§1) Toxicity in ip dosed male Wistar rat; assay type: organism-based; settings: in vivo
[5] = as §1; assay type: organism-based; settings: male, Wistar, in vivo
Rattus norvegicus [6] = organism: Rattus norvegicus; assay: Toxicity in rat by 12-weeks study; assay type: organism-based; settings: in vivo, 2016 h
[7] = (§2) Toxicity in po dosed female SHK mouse; assay type: organism-based; settings: female, SHK, in vivo
Mus musculus [8] = assay: as §2; assay type: organism-based; settings: in vivo
West Nile virus = assay: Antiviral activity against West Nile virus NY99 infected in african green monkey Vero-76 cells after 3 days; assay type: functional, organism-based; settings: NY99, Vero 76, 72 h
[9] = Half life in beagle dog at 5 mg/kg, iv as 30 mins infusion; assay type: ADME, organism-based, Canis lupus familiaris; set-up: dose 5 mg/kg, route intravenous; settings: in vivo
Salmonella typhimurium [10] = assay: Mutagenicity in Salmonella typhimurium TA1535 assessed as increase in number of colonies by Ames test relative to control; assay type: toxicity, organism-based; settings: salmonella enterica subsp. enterica serovar typhimurium
[11] = Metabolic stability in dog liver microsomes assessed as residual compound at 1 uM after 60 mins; assay type: ADME, Canis lupus familiaris; settings: read-out: Stability
Dengue virus = assay: Antiviral activity against Dengue virus infected in african green monkey Vero-76 cells after 3 days; assay type: functional, organism-based; settings: Vero 76, 72 h
Hepatitis C virus [12] = assay: Antiviral activity against HCV genotype 4a; assay type: functional, Hepacivirus hominis
Salmonella typhimurium [13] = assay: Mutagenicity in Salmonella typhimurium TA100 assessed as increase in number of colonies by Ames test relative to control; assay type: toxicity, organism-based; settings: salmonella enterica subsp. enterica serovar typhimurium
Hepatitis C virus [14] = assay: Antiviral activity against HCV genotype 1a; assay type: functional, Hepacivirus hominis; settings: subtype 1a
[15] = Metabolic stability in rat liver microsomes assessed as residual compound at 1 uM after 60 mins; assay type: ADME; settings: read-out: Stability
[16] = Toxicity in ip dosed SHK mouse; assay type: organism-based; settings: in vivo
[17] = Lipophilicity, log D of the compound at pH 7.4; assay type: physicochemical; settings: buffer
[18] = Cytotoxicity against human HuH7 cells; assay type: cell-based, Huh-7
Rattus norvegicus [19] = assay: (§3) Toxicity in ip dosed Wistar rat; assay type: organism-based; settings: in vivo
[20] = as §3; assay type: organism-based; settings: Wistar, in vivo
Rattus norvegicus [21] = organism: Rattus norvegicus; assay: Toxicity in female rat assessed as adverse effect on reproductive organ; assay type: organism-based; settings: in vivo
Rattus norvegicus [22] = organism: Rattus norvegicus; assay: Toxicity in male rat assessed as adverse effect on reproductive organ; assay type: organism-based; settings: in vivo
Cytochrome P450 2C9 = Cytochrome P450 2C9 (Homo sapiens, UniProt P11712); assay: Inhibition of human liver CYP2C9; assay type: ADME
Sequence of Cytochrome P450 2C9 (P11712 whole entry): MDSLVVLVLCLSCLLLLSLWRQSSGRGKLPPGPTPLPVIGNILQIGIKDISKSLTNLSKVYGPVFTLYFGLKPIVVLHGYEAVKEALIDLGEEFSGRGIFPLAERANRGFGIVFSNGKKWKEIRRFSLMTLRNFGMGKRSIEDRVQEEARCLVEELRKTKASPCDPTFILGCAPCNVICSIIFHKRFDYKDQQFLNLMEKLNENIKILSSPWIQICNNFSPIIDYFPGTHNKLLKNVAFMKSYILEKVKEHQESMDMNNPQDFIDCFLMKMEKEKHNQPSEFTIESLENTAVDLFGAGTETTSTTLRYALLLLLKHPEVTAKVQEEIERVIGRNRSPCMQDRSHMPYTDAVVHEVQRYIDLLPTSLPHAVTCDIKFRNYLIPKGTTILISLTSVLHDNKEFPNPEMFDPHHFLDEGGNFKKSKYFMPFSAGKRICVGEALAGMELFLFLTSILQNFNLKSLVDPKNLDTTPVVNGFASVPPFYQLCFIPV

[23] = Cytotoxicity against Yellow fever virus infected african green monkey Vero 76 cells after 3 days; assay type: cell-based; settings: chlorocebus sabaeus, Vero 76 cells infected with Yellow fever virus
[24] = Cytotoxicity against Dengue virus infected african green monkey Vero 76 cells after 3 days; assay type: cell-based; settings: chlorocebus sabaeus, Vero 76 cells infected with Dengue virus
[25] = Half life in Sprague-Dawley rat at 2.8 mg/kg, iv as 30 mins infusion; assay type: ADME, organism-based; set-up: dose 2.8 mg/kg, route intravenous; settings: in vivo
[26] = Lipophilicity, log P of the compound; assay type: physicochemical; settings: octanol/water
Salmonella typhimurium [27] = assay: Mutagenicity in Salmonella typhimurium TA1537 assessed as increase in number of colonies by Ames test relative to control; assay type: toxicity, organism-based; settings: salmonella enterica subsp. enterica serovar typhimurium
[28] = biological target: Voltage-gated inwardly rectifying potassium channel KCNH2 (Homo sapiens, UniProt Q12809); assay: Binding affinity to human ERG at 3 to 30 uM
Sequence of Voltage-gated inwardly rectifying potassium channel KCNH2 (Q12809 whole entry): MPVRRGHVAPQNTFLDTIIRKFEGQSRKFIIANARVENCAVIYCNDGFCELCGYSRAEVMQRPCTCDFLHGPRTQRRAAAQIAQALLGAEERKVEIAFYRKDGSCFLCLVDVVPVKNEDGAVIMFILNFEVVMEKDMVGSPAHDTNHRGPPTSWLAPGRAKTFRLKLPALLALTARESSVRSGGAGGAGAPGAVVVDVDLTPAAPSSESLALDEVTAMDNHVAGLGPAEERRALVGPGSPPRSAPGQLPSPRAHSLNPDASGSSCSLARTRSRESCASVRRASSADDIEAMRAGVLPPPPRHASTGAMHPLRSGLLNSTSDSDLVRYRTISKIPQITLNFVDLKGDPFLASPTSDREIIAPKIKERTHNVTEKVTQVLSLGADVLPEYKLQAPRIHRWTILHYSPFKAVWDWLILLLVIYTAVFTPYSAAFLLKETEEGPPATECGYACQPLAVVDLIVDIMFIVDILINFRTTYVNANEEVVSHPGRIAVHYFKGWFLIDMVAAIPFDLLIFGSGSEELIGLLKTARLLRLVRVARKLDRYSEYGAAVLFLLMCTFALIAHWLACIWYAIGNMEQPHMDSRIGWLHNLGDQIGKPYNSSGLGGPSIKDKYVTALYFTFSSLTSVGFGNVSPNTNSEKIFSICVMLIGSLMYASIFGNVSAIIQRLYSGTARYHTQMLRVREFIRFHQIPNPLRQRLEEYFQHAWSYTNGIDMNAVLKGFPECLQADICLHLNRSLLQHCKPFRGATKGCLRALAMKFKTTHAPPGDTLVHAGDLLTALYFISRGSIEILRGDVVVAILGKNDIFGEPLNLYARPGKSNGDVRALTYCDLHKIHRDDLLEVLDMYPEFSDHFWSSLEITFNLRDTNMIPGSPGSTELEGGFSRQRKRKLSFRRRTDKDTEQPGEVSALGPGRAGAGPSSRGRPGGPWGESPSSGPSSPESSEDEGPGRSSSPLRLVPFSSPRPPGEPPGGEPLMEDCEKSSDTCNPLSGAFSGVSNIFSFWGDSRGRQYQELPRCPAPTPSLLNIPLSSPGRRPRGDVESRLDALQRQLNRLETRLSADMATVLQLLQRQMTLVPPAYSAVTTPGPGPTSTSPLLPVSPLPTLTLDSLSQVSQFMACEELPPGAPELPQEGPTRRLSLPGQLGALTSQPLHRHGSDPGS

[29] = Metabolic stability in human liver microsomes assessed as residual compound at 1 uM after 60 mins; assay type: ADME; settings: read-out: Stability
[30] = Therapeutic index, ratio of CC50 for human Huh7 cells to EC50 for HCV genotype 1b infected in human Huh7 cells; assay type: cell-based, Huh-7; settings: read-out: Ratio CC50/EC50
Hepatitis C virus [31] = assay: Antiviral activity against HCV genotype 1b infected in human Huh7 cells after 3 days by cell-based replicon assay in presence of 40% normal human serum; assay type: functional, Hepacivirus hominis; settings: Huh-7, 72 h
[32] = Oral bioavailability in Sprague-Dawley rat at 11.2 mg/kg; assay type: ADME, organism-based; settings: in vivo
[33] = Half life in beagle dog at 10 mg/kg, po; assay type: ADME, organism-based, Canis lupus familiaris; set-up: dose 10 mg/kg, route oral; settings: in vivo
Cytochrome P450 2D6 = Cytochrome P450 2D6 (Homo sapiens, UniProt P10635); assay: Inhibition of human liver CYP2D6; assay type: ADME
Sequence of Cytochrome P450 2D6 (P10635 whole entry): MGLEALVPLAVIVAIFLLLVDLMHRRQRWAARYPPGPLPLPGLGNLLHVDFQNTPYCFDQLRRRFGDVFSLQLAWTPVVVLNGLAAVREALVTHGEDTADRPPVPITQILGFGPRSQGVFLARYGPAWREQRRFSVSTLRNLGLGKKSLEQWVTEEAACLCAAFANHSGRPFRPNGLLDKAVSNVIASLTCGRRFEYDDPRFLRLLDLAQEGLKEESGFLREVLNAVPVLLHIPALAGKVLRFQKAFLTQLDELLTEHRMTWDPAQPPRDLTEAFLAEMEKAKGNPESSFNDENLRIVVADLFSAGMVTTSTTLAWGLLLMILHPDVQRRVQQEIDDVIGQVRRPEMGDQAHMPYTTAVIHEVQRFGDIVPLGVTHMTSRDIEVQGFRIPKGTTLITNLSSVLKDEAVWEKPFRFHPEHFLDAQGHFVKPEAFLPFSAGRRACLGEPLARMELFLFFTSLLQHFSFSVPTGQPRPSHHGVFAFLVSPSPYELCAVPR

[34] = Solubility of the compound in water at pH 4; assay type: physicochemical
[35] = Solubility of the compound in water at pH 2; assay type: physicochemical
Cytochrome P450 3A4 = Cytochrome P450 3A4 (Homo sapiens, UniProt P08684); assay: Inhibition of human liver CYP3A4; assay type: ADME
Sequence of Cytochrome P450 3A4 (P08684 whole entry): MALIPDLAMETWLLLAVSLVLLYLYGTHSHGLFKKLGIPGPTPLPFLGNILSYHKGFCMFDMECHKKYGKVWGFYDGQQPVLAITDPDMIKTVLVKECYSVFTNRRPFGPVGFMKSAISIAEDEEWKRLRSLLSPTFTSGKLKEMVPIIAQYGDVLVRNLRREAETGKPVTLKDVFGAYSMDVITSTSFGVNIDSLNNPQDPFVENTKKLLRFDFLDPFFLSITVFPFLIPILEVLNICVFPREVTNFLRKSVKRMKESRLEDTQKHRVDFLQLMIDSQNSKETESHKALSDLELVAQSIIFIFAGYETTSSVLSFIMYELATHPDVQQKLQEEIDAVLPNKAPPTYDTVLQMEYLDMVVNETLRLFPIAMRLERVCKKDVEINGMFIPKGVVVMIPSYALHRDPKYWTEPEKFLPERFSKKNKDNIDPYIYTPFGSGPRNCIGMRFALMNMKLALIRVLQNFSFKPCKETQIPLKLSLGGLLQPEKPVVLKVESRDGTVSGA

[36] = Solubility of the compound in alcohol; assay type: physicochemical
Salmonella typhimurium [37] = assay: Mutagenicity in Salmonella typhimurium TA98 assessed as increase in number of colonies by Ames test relative to control; assay type: toxicity, organism-based; settings: salmonella enterica subsp. enterica serovar typhimurium
Yellow fever virus = assay: Antiviral activity against Yellow fever virus infected in african green monkey Vero-76 cells after 3 days; assay type: functional, organism-based; settings: Vero 76, 72 h
[38] = (§4) Toxicity in po dosed male SHK mouse; assay type: organism-based; settings: male, SHK, in vivo
Mus musculus [39] = assay: as §4; assay type: organism-based; settings: in vivo
[40] = Oral bioavailability in beagle dog at 10 mg/kg; assay type: ADME, organism-based, Canis lupus familiaris; settings: in vivo
Hepatitis C virus [41] = assay: Antiviral activity against HCV genotype 1b infected in human Huh7 cells after 3 days by cell-based replicon assay in presence of 10% fetal bovine serum; assay type: functional, Hepacivirus hominis; settings: Huh-7, 72 h
[42] = Solubility of the compound in water at pH 7.4; assay type: physicochemical
Cytochrome P450 2C19 = Cytochrome P450 2C19 (Homo sapiens, UniProt P33261); assay: Inhibition of human liver CYP2C19; assay type: ADME
Sequence of Cytochrome P450 2C19 (P33261 whole entry): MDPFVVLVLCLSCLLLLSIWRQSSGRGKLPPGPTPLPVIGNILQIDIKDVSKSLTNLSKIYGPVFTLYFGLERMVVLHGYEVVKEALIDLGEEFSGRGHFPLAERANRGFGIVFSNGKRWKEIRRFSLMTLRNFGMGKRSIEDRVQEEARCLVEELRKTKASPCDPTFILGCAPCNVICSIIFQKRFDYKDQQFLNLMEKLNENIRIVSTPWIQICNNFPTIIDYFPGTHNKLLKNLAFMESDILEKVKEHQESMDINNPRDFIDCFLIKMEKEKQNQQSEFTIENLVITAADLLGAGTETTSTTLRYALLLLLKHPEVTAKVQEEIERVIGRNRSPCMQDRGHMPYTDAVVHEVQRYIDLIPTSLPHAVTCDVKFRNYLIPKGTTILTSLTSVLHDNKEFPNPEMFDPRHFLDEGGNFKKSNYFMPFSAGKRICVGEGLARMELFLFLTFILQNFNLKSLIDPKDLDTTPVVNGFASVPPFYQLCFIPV

Canis familiaris = organism: Canis familiaris; assay: Toxicity in dog by 6-weeks study; assay type: organism-based, Canis lupus familiaris; settings: in vivo, 1008 h
Rattus norvegicus [43] = assay: (§5) Toxicity in ip dosed female Wistar rat; assay type: organism-based; settings: in vivo
[44] = as §5; assay type: organism-based; settings: female, Wistar, in vivo
Hepatitis C virus [45] = assay: Antiviral activity against HCV genotype 2a; assay type: functional, Hepacivirus hominis
Cytochrome P450 1A2 = biological target: T1, Cytochrome P450 1A2 (Homo sapiens, UniProt P05177); assay: Inhibition of human liver CYP1A2; assay type: ADME
T1 sequence (P05177 whole entry): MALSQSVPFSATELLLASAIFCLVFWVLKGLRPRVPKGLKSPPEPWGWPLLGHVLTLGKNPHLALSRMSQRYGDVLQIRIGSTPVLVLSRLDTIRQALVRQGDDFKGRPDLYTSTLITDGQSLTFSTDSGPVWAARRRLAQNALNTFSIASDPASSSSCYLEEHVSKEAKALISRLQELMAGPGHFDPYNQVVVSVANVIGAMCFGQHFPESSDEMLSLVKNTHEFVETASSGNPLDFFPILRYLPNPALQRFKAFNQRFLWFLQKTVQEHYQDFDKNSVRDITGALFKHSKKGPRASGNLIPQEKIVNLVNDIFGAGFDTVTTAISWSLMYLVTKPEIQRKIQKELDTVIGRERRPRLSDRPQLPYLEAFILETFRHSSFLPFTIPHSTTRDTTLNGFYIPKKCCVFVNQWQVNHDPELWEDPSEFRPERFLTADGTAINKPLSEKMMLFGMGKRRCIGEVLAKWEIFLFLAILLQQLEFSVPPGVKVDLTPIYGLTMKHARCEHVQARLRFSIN

## COC(=O)N[C@H](C(=O)N1CCCC1c1ncc(C#CC#Cc2ccc(-c3cnc(C4CCCN4C(=O)[C@@H](NC(=O)OC)C(C)C)[nH]3)cc2)[nH]1)C(C)C.Cl (single isomer, unassigned; 13a)
[1]
  half-life: 3 h
[2]
  CC50 at 72 h: 26.3 µM
[3]
  solubility: ≥ 10 µM
Rattus norvegicus [4]
  LD10: 228.6 mg/kg
[5]
  LD50: 349 mg/kg
Rattus norvegicus [6]
  Activity: Non-toxic
  LD84: 651.3 mg/kg
[7]
  LD50: 3010 mg/kg
Mus musculus [8]
  LD10: 1160.1 mg/kg
  LD16: 1565.7 mg/kg
  LD84: 4445.3 mg/kg
West Nile virus
  EC50: > 26.3 µM
[9]
  half-life: 4.9 h
Salmonella typhimurium [10]
  Activity: Non-toxic
[11]
  remaining at 1 h, 1 µM: 84.7%
Dengue virus
  EC50: > 28.4 µM
Hepatitis C virus [12]
  EC50: 6.5 pM
Salmonella typhimurium [13]
  Activity: Non-toxic
Hepatitis C virus [14]
  EC50: 0.059 nM
[15]
  remaining at 1 h, 1 µM: 70.8%
[16]
  LD50: > 1600 mg/kg
[17]
  logD: 4.46
[18]
  CC50: 17.3 µM
Rattus norvegicus [19]
  LD10: 234.2 mg/kg
[20]
  LD50: 395 mg/kg
Rattus norvegicus [21]
  Activity: Non-toxic
Rattus norvegicus [22]
  Activity: Non-toxic
  LD84: 593.2 mg/kg
Cytochrome P450 2C9
  IC50: > 10 µM
[23]
  CC50 at 72 h: 23.5 µM
[24]
  CC50 at 72 h: 28.4 µM
[25]
  half-life: 3.4 h
[26]
  logP: 4.99
Salmonella typhimurium [27]
  Activity: Non-toxic
[28]
  Activity: < 10%
[29]
  remaining at 1 h, 1 µM: 81.5%
[30]
  selectivity ratio: > 5000
Hepatitis C virus [31]
  EC50: 0.021 nM
[32]
  bioavailability: 65%
[33]
  half-life: 4.5 h
Cytochrome P450 2D6
  IC50: > 10 µM
[34]
  solubility: 2200 µM
[35]
  solubility: 208 µM
Cytochrome P450 3A4
  IC50: > 10 µM
[36]
  solubility: ≥ 10 µM
Salmonella typhimurium [37]
  Activity: Non-toxic
Yellow fever virus
  EC50: > 23.5 µM
[38]
  LD50: 3440 mg/kg
Mus musculus [39]
  LD10: 2320.3 mg/kg
  LD16: 2565.4 mg/kg
  LD84: 4305.3 mg/kg
[40]
  bioavailability: 58%
Hepatitis C virus [41]
  EC50: 3.4 pM
[42]
  solubility: 433 µM
Cytochrome P450 2C19
  IC50: > 10 µM
Canis familiaris
  Activity: Non-toxic
  LD84: 485.6 mg/kg
Rattus norvegicus [43]
  LD10: 228.4 mg/kg
[44]
  LD50: 412 mg/kg
Hepatitis C virus [45]
  EC50: 0.051 nM
Cytochrome P450 1A2
  IC50: > 10 µM
